According to patent publication US11851428B2, “Activator of TREK (TWIK RElated K+channels) channels” (ONO PHARMACEUTICAL CO., LTD., priority 2016, dated 2023):
“Also recorded” adds a separate entry of the source.

The compounds below were run against T1, human TREK-1 (Homo sapiens, UniProt O95069) (assay: thallium flux assay (TREK1 activation normalized to BL-1249)). Conditions: CHO-K1, read-out: TREK1 activation RBL-1249 (%).
T1 construct: expressed in transfected cells
T1 sequence (O95069 1-426): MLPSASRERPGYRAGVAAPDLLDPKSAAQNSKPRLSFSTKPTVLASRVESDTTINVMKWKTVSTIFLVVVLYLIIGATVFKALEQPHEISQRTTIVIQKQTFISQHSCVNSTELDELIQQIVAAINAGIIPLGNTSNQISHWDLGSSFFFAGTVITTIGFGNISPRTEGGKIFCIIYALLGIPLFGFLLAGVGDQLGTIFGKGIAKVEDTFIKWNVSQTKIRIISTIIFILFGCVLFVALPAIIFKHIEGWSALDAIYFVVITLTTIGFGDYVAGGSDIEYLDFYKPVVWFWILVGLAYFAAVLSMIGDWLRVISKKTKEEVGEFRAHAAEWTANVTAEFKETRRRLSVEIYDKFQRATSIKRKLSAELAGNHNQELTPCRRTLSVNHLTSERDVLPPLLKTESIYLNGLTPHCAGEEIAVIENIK
Type: cell-based
Description: The term “thallium flux assay” herein refers to a fluorescence-based assay used to monitor the activity of TREK channels. Thallium is a congener of potassium that readily fluxes through the pore of TREK channels. Thallium flux is measured using a commercially available, thallium-sensitive fluorescent dye called Thallos. The detail method is described below.
Method 1 (Thallium Flux Assay);
CHO-K1 cells stably expressing human TREK-1 or HEK293 cells stably expressing human TREK-2 are plated in 384-well plates, cultured overnight, loaded with Thallos dye the following day, treated with test compounds for 10 min, and then treated with thallium stimulus buffer to initiate thallium flux. The change in fluorescence at 25 seconds after thallium addition is normalized to baseline fluorescence (fluorescent intensity at 25 sec after Tl^+ addition)/(average of fluorescent intensity at pre-read).

Which activation at 10 µM does the source give for `O=C(NCc1ccc(OC(F)(F)F)cc1Cl)c1ccc2ncnn2c1` [Example 9-2, N-[[2-chloro-4-(trifluoromethoxy)phenyl]methyl]-[1,2,4]triazolo[1,5-a]pyridine-6-carboxamide] here?
The activation at 10 µM was 106%.

`CS(=O)(=O)Nc1ccc(C(=O)NCc2ccc(Cl)cc2Cl)cc1` [N-(2,4-dichlorobenzyl)-4-[(methylsulfonyl)amino]benzamide] was tested. Which activation at 30 µM did it give?
The activation at 30 µM was 54%.

Same assay, conditions: concentration of Example compound 10 μM; normalized to 10 μM BL-1249; CHO-K1 cells stably expressing human TREK-1

For `O=C(NCc1ccc(OC(F)(F)F)cc1Cl)c1cnc2ccnn2c1` [Example 9-8, N-[[2-chloro-4-(trifluoromethoxy)phenyl]methyl]pyrazo1o[1,5-a]pyrimidine-6-carboxamide], which “TREK1 activation RBL-1249 (%)” value is on record?
The value was 106%.

How did the “TREK1 activation RBL-1249 (%)” value turn out when `Cc1nnc2cc(C(=O)NCc3ccc(OC(F)(F)F)cc3Cl)ccn12` [Example 9-11] was run?
The value was 126%.

Which “TREK1 activation RBL-1249 (%)” value does the source give for `O=C(NCc1ccc(OC(F)(F)F)cc1Cl)c1ccn2nnnc2c1` [Example 9-17] here?
Its value is 78%.

Same assay, conditions: concentration of Example compound 10 μM; normalized to 10 μM BL-1249; CHO-K1 cells stably expressing human TREK-1; read-out: TREK1 activation RBL-1249 (%)

Which activation at 10 µM does the source give for `O=C(NCc1ccc(OC(F)(F)F)cc1F)c1ccc2ncnn2c1` [Example 1-25, N-[2-fluoro-4-(trifluoromethoxy)benzyl][1,2,4]triazolo[1,5-a]pyridine-6-carboxamide] here?
The activation at 10 µM was 82%.

For `COc1cc(OC(F)(F)F)ccc1CNC(=O)c1ccc(-n2cncn2)nc1` [Example 2-30, N-[2-methoxy-4-(trifluoromethoxy)benzyl]-6-(1H-1,2,4-triazol-1-yl)nicotinamide], which activation at 10 µM is on record?
The activation at 10 µM was 42%.

`Cc1cc(OC(F)(F)F)ccc1CNC(=O)c1ccc(-c2ncn[nH]2)cc1` [Example 2-34, N-[2-methyl-4-(trifluoromethoxy)benzyl]-4-(1H-1,2,4-triazol-5-yl)benzamide] was tested. Which activation at 10 µM did it give?
Its activation at 10 µM is 80%.

For `O=C(NCc1ccc(OC(F)(F)F)cc1F)c1ccc(-c2ncc[nH]2)cc1` [Example 2-36, N-[2-fluoro-4-(trifluoromethoxy)benzyl]-4-(1H-imidazol-2-yl)benzamide], which activation at 10 µM is on record?
The activation at 10 µM was 73%.

For `Cc1cc(OC(F)(F)F)ccc1CNC(=O)c1ccc(-n2cccn2)cc1` [Example 2-38, N-[2-methyl-4-(trifluoromethoxy)benzyl]-4-(1H-pyrazol-1-yl)benzamide], which activation at 10 µM is on record?
Its activation at 10 µM is 55%.

How did the activation at 10 µM turn out when `COc1cc(OC(F)(F)F)ccc1CNC(=O)c1ccc(-n2cccn2)cc1` [Example 2-41, N-[2-methoxy-4-(trifluoromethoxy)benzyl]-4-(1H-pyrazol-1-yl)benzamide] was run?
Its activation at 10 µM is 63%.

How did the activation at 10 µM turn out when `O=C(NCc1ccc(OC(F)(F)F)cc1)c1ccc(-c2ncccn2)cc1` [Example 2-47, 4-(2-pyrimidinyl)-N-[4-(trifluoromethoxy)benzyl]benzamide] was run?
Its activation at 10 µM is 44%.

`O=C(NCc1ccc(Br)cc1Cl)c1ccc(-c2ncn[nH]2)cc1` [Example 2-49, N-(4-bromo-2-chlorobenzyl)-4-(1H-1,2,4-triazol-5-yl)benzamide] was tested. Which activation at 10 µM did it give?
Its activation at 10 µM is 84%.

`Cc1nnc2cc(C(=O)NCc3ccc(OC(F)(F)F)c(F)c3)ccn12` [Example 3-3, N-[3-fluoro-4-(trifluoromethoxy)benzyl]-3-methyl[1,2,4]triazolo[4,3-a]pyridine-7-carboxamide] was tested. Which activation at 10 µM did it give?
The activation at 10 µM was 67%.

Which activation at 10 µM does the source give for `Cc1nc2ccc(C(=O)NCc3ccc(OC(F)(F)F)cc3C)cn2n1` [Example 3-4, 2-methyl-N-[2-methyl-4-(trifluoromethoxy)benzyl][1,2,4]triazolo[1,5-a]pyridine-6-carboxamide] here?
The activation at 10 µM was 89%.

Which activation at 10 µM does the source give for `Cc1cc(OC(F)(F)F)ccc1CNC(=O)c1ccn2c(C)nnc2c1` [Example 3-5, 3-methyl-N-[2-methyl-4-(trifluoromethoxy)benzyl][1,2,4]triazolo[4,3-a]pyridine-7-carboxamide] here?
Its activation at 10 µM is 89%.

For `O=C(NCc1ccc(OC(F)(F)F)cc1Cl)c1ccn2cnnc2c1` [Example 9, N-[[2-Chloro-4-(trifluoromethoxy)phenyl]methyl]-[1,2,4]triazolo[4,3-a]pyridine-7-carboxamide], which activation at 10 µM is on record?
Its activation at 10 µM is 99%.

With `Cn1nnc2cc(C(=O)NCc3ccc(OC(F)(F)F)cc3Cl)ccc21` [Example 9-4, N-[[2-chloro-4-(trifluoromethoxy)phenyl]methyl]-1-methylbenzotriazole-5-carboxamide] as the compound, how does the activation at 10 µM read?
Its activation at 10 µM is 87%.

Which activation at 10 µM does the source give for `O=C(NCc1ccc(OC(F)(F)F)cc1Cl)c1ccc2[nH]nnc2c1` [Example 9-7, N-[[2-chloro-4-(trifluoromethoxy)phenyl]methyl]-1H-benzotriazole-5-carboxamide] here?
Its activation at 10 µM is 125%.

Which activation at 10 µM does the source give for `Nc1c(C(=O)NCc2ccc(OC(F)(F)F)cc2Cl)cnc2ccnn12` [Example 9-14, 7-amino-N-[2-chloro-4-(trifluoromethoxy)benzyl]pyrazolo[1,5-a]pyrimidine-6-carboxamide] here?
The activation at 10 µM was 79%.

Which activation at 10 µM does the source give for `O=C(NCc1ccc(OC(F)(F)F)cc1Cl)c1ccc(-c2ncc[nH]2)cc1` [Example 9-15, N-[2-chloro-4-(trifluoromethoxy)benzyl]-4-(1H-imidazol-2-yl)benzamide] here?
Its activation at 10 µM is 59%.

For `O=C(NCc1ccc(OC(F)(F)F)cc1Cl)c1ccc2nnnn2c1` [Example 9-16, N-[2-chloro-4-(trifluoromethoxy)benzyl]tetrazolo[1,5-a]pyridine-6-carboxamide], which activation at 10 µM is on record?
Its activation at 10 µM is 95%.

`Cc1cc2ncc(C(=O)NCc3ccc(OC(F)(F)F)cc3Cl)cn2n1` [Example 9-19, N-[2-chloro-4-(trifluoromethoxy)benzyl]-2-methylpyrazolo[1,5-a]pyrimidine-6-carboxamide] was tested. Which activation at 10 µM did it give?
The activation at 10 µM was 68%.

Same assay, conditions: concentration of Example compound 30 μM; normalized to 10 μM BL-1249; CHO-K1 cells stably expressing human TREK-1; read-out: TREK1 activation RBL-1249 (%)

With `O=C(NCc1ccc(OC(F)(F)F)cc1)c1nc(-c2ccccn2)cs1` [Example 2-32, 4-(2-pyridinyl)-N-[4-(trifluoromethoxy)benzyl]-1,3-thiazole-2-carboxamide] as the compound, how does the activation at 30 µM read?
Its activation at 30 µM is 38%.

With `O=C(NCc1ccc(C(F)(F)F)cn1)c1ccc(-n2cccn2)cc1` [Example 2-37, 4-(1H-pyrazol-1-yl)-N-{[5-(trifluoromethyl)-2-pyridinyl]methyl}benzamide] as the compound, how does the activation at 30 µM read?
Its activation at 30 µM is 24%.

For `Cc1cc(C(=O)NCc2ccc(Br)cc2Cl)cn2ncnc12` [Example 3-2, N-(4-bromo-2-chlorobenzyl)-8-methyl[1,2,4]triazolo[1,5-a]pyridine-6-carboxamide], which activation at 30 µM is on record?
Its activation at 30 µM is 41%.

`CS(=O)(=O)N1CCOc2cc(C(=O)NCc3ccc(Br)cc3Cl)ccc21` [Example 3-10, N-(4-bromo-2-chlorobenzyl)-4-(methylsulfonyl)-3,4-dihydro-2H-1,4-benzoxazine-7-carboxamide] was tested. Which activation at 30 µM did it give?
The activation at 30 µM was 34%.

With `COc1cc(OC(F)(F)F)ccc1CNC(=O)c1ccc(-c2noc(=O)[nH]2)cc1` [Example 4, N-[2-Methoxy-4-(trifluoromethoxy)benzyl]-4-(5-oxo-4,5-dihydro-1,2,4-oxadiazol-3-yl)benzamide] as the compound, how does the activation at 30 µM read?
Its activation at 30 µM is 77%.

For `COc1cc(OC(F)(F)F)ccc1CNC(=O)c1ccc(-c2nnn[nH]2)cc1` [Example 5, N-[2-Methoxy-4-(trifluoromethoxy)benzyl]-4-(1H-tetrazol-5-yl)benzamide], which activation at 30 µM is on record?
The activation at 30 µM was 79%.

With `O=C(Cc1ccc(OC(F)(F)F)cc1F)Nc1ccc2ncnn2c1` [Example 6, 2-[2-Fluoro-4-(trifluoromethoxy)phenyl]-N-([1,2,4]triazolo[1,5-a]pyridin-6-yl)acetamide] as the compound, how does the activation at 30 µM read?
The activation at 30 µM was 19%.

Which activation at 30 µM does the source give for `O=C(NCc1ccc(Cl)cc1Cl)c1ccc(CN2CCOCC2)cc1` [Example 7, N-(2,4-Dichlorobenzyl)-4-(4-morpholinomethyl)benzamide] here?
The activation at 30 µM was 38%.

`COc1cc(OC(F)(F)F)ccc1CNC(=O)c1ccc(NS(C)(=O)=O)nc1` [Example 8-2, N-[2-methoxy-4-(trifluoromethoxy)benzyl]-6-[(methylsulfonyl)amino]nicotinamide] was tested. Which activation at 30 µM did it give?
The activation at 30 µM was 48%.

The compounds below were run on ICR mice (assay: acetic acid writhing assay). Conditions: ICR mice, 3 mg/kg p.o., 2 h before acetic acid i.p., counted for 30 min, vs vehicle; 3 mg/kg.
Type: in vivo, mouse
Description: d. Analgesic Effect in Acetic Acid Writhing Assay
ICR mice were pretreated with vehicle (0.5 w/v % methyl cellulose, p.o.) or Example 1-25 compounds (0.3, 1, 3 mg/kg, p.o.) or Example 2 compounds (1, 10, 300 mg/kg, p.o.) or indomethacin (10 mg/kg, p.o.). Compounds were suspended in 0.5 w/v % methyl cellulose and indomethacin was dissolved in 0.7% sodium bicarbonate. All drugs were administered in a volume of 10 mL/kg. Two hours after administration of the disclosed compounds and vehicle, or one hour after administration of indomethacin, the animals were injected with acetic acid (0.7% v/v in saline, 10 mL/kg, i.p.). The number of writhes (characterized by contraction of the abdominal musculature and extension of the limbs) was then counted for 30 min. Analgesic effect was evaluated by comparing the number of writhes between the rest compounds group and the vehicle group.

Which “number of writhes induced by acetic acid” value does the source give for `O=C(NCc1ccc(OC(F)(F)F)cc1F)c1ccc2ncnn2c1` [Example 1-25, N-[2-fluoro-4-(trifluoromethoxy)benzyl][1,2,4]triazolo[1,5-a]pyridine-6-carboxamide] here?
Its value is “significantly decreased the number of writhes; also recorded: the same degree as indomethacin 10 mg/kg”.

Same assay, conditions: mouse, p.o., dose not stated in the legend; *p<0.05 vs vehicle

`O=C(NCc1ccc(OC(F)(F)F)cc1F)c1ccc2ncnn2c1` [Example 1-25, N-[2-fluoro-4-(trifluoromethoxy)benzyl][1,2,4]triazolo[1,5-a]pyridine-6-carboxamide] was tested. Which “number of writhes induced by acetic acid (FIGURE legend)” value did it give?
The value was “inhibit the number of writhes induced by acetic acid”.
